Active and inactive are the calls of the source. The rule behind the calls is not given here.
System: GENE-TOX genotoxicity assays, various organisms and cells
Assay: GENE-TOX mutagenicity studies
Details: for call: Assay Type: In vivo carcinogenicity studies
[1] = Species/Cell Type: Nonhuman, Assay Type: Sister-chromatid exchange (SCE) in vitro, Assay Code: SC2+D, Dose Response: With dose response, Evaluation Type: Evaluation A (Pre-1980)
[2] = Species/Cell Type: Nonhuman, Assay Type: Sister-chromatid exchange (SCE) in vivo, Assay Code: SC3T, Evaluation Type: Evaluation B (Post-1980)
[3] = Species/Cell Type: Mouse, Sex: Male, Assay Type: Sperm morphology, Assay Code: SPI-, Evaluation Type: Evaluation A (Pre-1980)
[4] = Species/Cell Type: Salmonella typhimurium (one or more of the five standard strains: TA98, TA100, TA1535, TA1537, and TA1538), Assay Type: Histidine reverse gene mutation, Ames assay, Assay Code: SAL-, Evaluation Type: Evaluation A (Pre-1980)
[5] = Species/Cell Type: Salmonella typhimurium (one or more of the five standard strains: TA98, TA100, TA1535, TA1537, and TA1538), Assay Type: Histidine reverse gene mutation, Ames assay, Assay Code: SALT, Evaluation Type: Evaluation A (Pre-1980)
[6] = Species/Cell Type: Schizosaccharomyces pombe, Assay Type: Reverse gene mutation, Assay Code: YEZ+, Evaluation Type: Evaluation A (Pre-1980)
[7] = Species/Cell Type: Drosophila melanogaster, Assay Type: Sex-linked recessive lethal gene mutation, Assay Code: SRL+, Evaluation Type: Evaluation A (Pre-1980)
[8] = Species/Cell Type: Saccharomyces cerevisiae, Assay Type: Mitotic recombination or gene conversion, Assay Code: YEC+, Evaluation Type: Evaluation A (Pre-1980)
[9] = Species/Cell Type: Allium cepa, Assay Type: Chromosome aberrations, Assay Code: ALC+D, Dose Response: With dose response, Evaluation Type: Evaluation A (Pre-1980)
[10] = Species/Cell Type: Salmonella typhimurium (one or more of the five standard strains: TA98, TA100, TA1535, TA1537, and TA1538), Assay Type: Histidine reverse gene mutation, Ames assay, Assay Code: SAL+, Evaluation Type: Evaluation A (Pre-1980)
[11] = Species/Cell Type: Nonhuman, Assay Type: Sister-chromatid exchange (SCE) in vitro, Assay Code: SC2+, Evaluation Type: Evaluation B (Post-1980)
[12] = Species/Cell Type: Escherichia coli polA (W3110 vs P3478), Assay Type: Rec-assay, DNA effects (bacterial DNA repair), Assay Code: RE2-, Evaluation Type: Evaluation A (Pre-1980)
[13] = Species/Cell Type: Saccharomyces cerevisiae, Assay Type: Mitotic recombination or gene conversion, Assay Code: YEH+/-*, Activation: With metabolic activation, Evaluation Type: Evaluation A (Pre-1980)
[14] = Species/Cell Type: Salmonella typhimurium, Assay Type: Forward and reverse gene mutation, host-mediated assay, Assay Code: HMA+, Evaluation Type: Evaluation A (Pre-1980)
[15] = Species/Cell Type: Syrian hamster embryo (SHE) cells, Assay Type: Cell transformation, clonal assay, Assay Code: CTC-, Evaluation Type: Evaluation A (Pre-1980)
[16] = Species/Cell Type: Nonhuman, Assay Code: CCG+L, Evaluation Type: Evaluation A (Pre-1980)
[17] = Species/Cell Type: Salmonella typhimurium (one or more of the five standard strains: TA98, TA100, TA1535, TA1537, and TA1538), Assay Type: Histidine reverse gene mutation, Ames assay, Assay Code: SAL+*, Activation: With metabolic activation, Evaluation Type: Evaluation A (Pre-1980)

## CN1CCN(c2ccc3nc(-c4ccc5nc(-c6ccc(O)cc6)[nH]c5c4)[nH]c3c2)CC1
[1]
  mutagenic call: active; positive
Species/Cell Type: Nonhuman, Assay Type: Sister-chromatid exchange (SCE) in vivo, Assay Code: SC3-, Evaluation Type: Evaluation A (Pre-1980)
  mutagenic call: inactive; negative
[2]
  mutagenic call: no conclusion

## C[N+](C)(C)CCCl
Species/Cell Type: Nonhuman, Assay Code: CCG-, Evaluation Type: Evaluation A (Pre-1980)
  call: inactive; negative
Species/Cell Type: Vicia faba, Assay Type: Chromosome aberrations, Assay Code: VIC+D, Dose Response: With dose response, Evaluation Type: Evaluation A (Pre-1980)
  mutagenic call: active; positive

## CCC1(c2ccccc2)C(=O)N=C(O)NC1=O (stereo unspecified)
Species/Cell Type: Drosophila melanogaster, Assay Type: Sex-linked recessive lethal gene mutation, Assay Code: SRLT, Evaluation Type: Evaluation A (Pre-1980)
  mutagenic call: no conclusion
[3]
  mutagenic call: inactive; negative
[2]
  mutagenic call: no conclusion
[4]
  mutagenic call: inactive; negative

## Cc1cc2ccccc2c2c(F)cc3ccccc3c12
[5]
  mutagenic call: no conclusion

## OC[C@H]1O[C@@H](n2cnc3cncnc32)[C@H](O)[C@@H]1O
Species/Cell Type: Arabidopsis species, Assay Type: Gene mutation, Assay Code: ARM-, Evaluation Type: Evaluation A (Pre-1980)
  mutagenic call: inactive; negative

## CN(C)C(=O)N1CC1
[6]
  mutagenic call: active; positive

## CN(C)N=Nc1ccc(Cl)cc1
[7]
  mutagenic call: active; positive
Species/Cell Type: Mammalian polychromatic erythrocytes, Assay Type: Micronucleus test, chromosome aberrations, Assay Code: MNT+, Evaluation Type: Evaluation A (Pre-1980)
  mutagenic call: active; positive
[8]
  mutagenic call: active; positive

## OCCN(CCO)CCO
[9]
  mutagenic call: active; positive

## NC(=O)N(CCC[C@H](N)C(=O)O)N=O
[10]
  mutagenic call: active; positive

## CCOP(=O)(OCC)Oc1cc(C)nc(C(C)C)n1
Species/Cell Type: Nonhuman, Assay Type: Sister-chromatid exchange (SCE) in vitro, Assay Code: SC2+D, Dose Response: With dose response, Evaluation Type: Evaluation B (Post-1980)
  mutagenic call: active; positive

## CN(C)CCNc1ccc(NCCN(C)C)c2c1C(=O)c1c(O)ccc(O)c1C2=O
[11]
  mutagenic call: active; positive

## Clc1cc(N2CC2)nc(N2CC2)n1
Species/Cell Type: Aspergillus nidulans, Assay Type: Forward gene mutation, Assay Code: ASF+, Evaluation Type: Evaluation A (Pre-1980)
  mutagenic call: active; positive

## Nc1ccc(-c2nc(NCC(O)CO)c3ccccc3n2)s1 (stereo unspecified)
[5]
  mutagenic call: no conclusion

## O=C1NS(=O)(=O)c2ccccc21
[9]
  mutagenic call: active; positive
[7]
  mutagenic call: active; positive
Species/Cell Type: Drosophila melanogaster, Sex: Male, Assay Type: Heritable translocation test, chromosome aberrations, Assay Code: DHTT, Evaluation Type: Evaluation A (Pre-1980)
  mutagenic call: no conclusion
[12]
  mutagenic call: inactive; negative
Species/Cell Type: Escherichia coli polA (W3119 vs P3478), Assay Type: Rec-assay, DNA effects (bacterial DNA repair), Assay Code: RE1-, Evaluation Type: Evaluation A (Pre-1980)
  mutagenic call: inactive; negative
Species/Cell Type: Human lymphocytes, Assay Type: Sister-chromatid exchange (SCE) in vitro, Assay Code: SCL+D, Dose Response: With dose response, Evaluation Type: Evaluation A (Pre-1980)
  mutagenic call: active; positive
Species/Cell Type: Human lymphocytes, Assay Type: Sister-chromatid exchange (SCE) in vitro, Assay Code: SCLT, Evaluation Type: Evaluation B (Post-1980)
  mutagenic call: no conclusion
Species/Cell Type: Human, Assay Type: Sister-chromatid exchange (SCE) in vitro, Assay Code: SC1+D, Dose Response: With dose response, Evaluation Type: Evaluation A (Pre-1980)
  mutagenic call: active; positive
Species/Cell Type: Human, Assay Type: Sister-chromatid exchange (SCE) in vitro, Assay Code: SC1T, Evaluation Type: Evaluation B (Post-1980)
  mutagenic call: no conclusion
Species/Cell Type: Mammalian polychromatic erythrocytes, Assay Type: Micronucleus test, chromosome aberrations, Assay Code: MNTT, Evaluation Type: Evaluation B (Post-1980)
  mutagenic call: no conclusion
Species/Cell Type: Mouse (C3H/10T1/2) cells, Assay Type: Cell transformation, Assay Code: CTH-, Evaluation Type: Evaluation A (Pre-1980)
  mutagenic call: inactive; negative
Species/Cell Type: Mouse lymphoma (L5178Y) cells, Assay Type: Forward gene mutation at the thymidine kinase (TK) locus, chromosome aberrations, Assay Code: L51T, Evaluation Type: Evaluation A (Pre-1980)
  mutagenic call: no conclusion
[3]
  mutagenic call: inactive; negative
Species/Cell Type: Neurospora crassa, Assay Type: Aneuploidy, chromosome aberrations, Assay Code: NEN-, Evaluation Type: Evaluation A (Pre-1980)
  mutagenic call: inactive; negative
[1]
  mutagenic call: active; positive
Species/Cell Type: Nonhuman, Assay Type: Sister-chromatid exchange (SCE) in vivo, Assay Code: SC3+D, Dose Response: With dose response, Evaluation Type: Evaluation B (Post-1980)
  mutagenic call: active; positive
Species/Cell Type: Rodents, Sex: Male, Assay Type: Dominant lethal test, Assay Code: DLT+, Evaluation Type: Evaluation A (Pre-1980)
  mutagenic call: active; positive
Species/Cell Type: Saccharomyces cerevisiae, Assay Type: Aneuploidy, chromosome aberrations, Assay Code: YEN+, Evaluation Type: Evaluation A (Pre-1980)
  mutagenic call: active; positive
[8]
  mutagenic call: active; positive
[13]
  mutagenic call: inactive; positive without activation, negative with activation
Species/Cell Type: Saccharomyces cerevisiae, Assay Type: Reverse gene mutation, Assay Code: YER+, Evaluation Type: Evaluation A (Pre-1980)
  mutagenic call: active; positive
[4]
  mutagenic call: inactive; negative
Species/Cell Type: Salmonella typhimurium, Assay Type: Forward and reverse gene mutation, body fluid assay, Assay Code: BFU+, Evaluation Type: Evaluation A (Pre-1980)
  mutagenic call: active; positive
[14]
  mutagenic call: active; positive
[15]
  mutagenic call: inactive; negative

## CN(C)P(=O)(N1CC1)N1CC1
[7]
  mutagenic call: active; positive
Species/Cell Type: Human lymphocytes, Assay Type: Sister-chromatid exchange (SCE) in vitro, Assay Code: SCL+D, Dose Response: With dose response, Evaluation Type: Evaluation B (Post-1980)
  mutagenic call: active; positive
Species/Cell Type: Human, Assay Type: Sister-chromatid exchange (SCE) in vitro, Assay Code: SC1+D, Dose Response: With dose response, Evaluation Type: Evaluation B (Post-1980)
  mutagenic call: active; positive
Species/Cell Type: Nonhuman, Assay Type: Chromosome aberrations in vitro, Assay Code: CY&+, Evaluation Type: Evaluation A (Pre-1980)
  mutagenic call: active; positive
[6]
  mutagenic call: active; positive

## Cc1ncc([N+](=O)[O-])n1C
[10]
  mutagenic call: active; positive

## O=NN(CCCl)C(=O)NCCNC(=O)N(CCCl)N=O
[7]
  mutagenic call: active; positive
[8]
  mutagenic call: active; positive

## Cc1cccc2cc3c(ccc4ccccc43)cc12
[16]
  call: active; positive
[11]
  mutagenic call: active; positive
[17]
  mutagenic call: active; positive
[15]
  mutagenic call: inactive; negative

## c1ccc2c(c1)ccc1[nH]c3ccc4ccccc4c3c12
Species/Cell Type: Nonhuman, Assay Code: CCG+, Evaluation Type: Evaluation A (Pre-1980)
  call: active; positive

## Cc1cc(N(C)C)ccc1N=Nc1ccccc1
[12]
  mutagenic call: inactive; negative
Species/Cell Type: Escherichia coli polA (W3119 vs P3478), Assay Type: Rec-assay, DNA effects (bacterial DNA repair), Assay Code: RE1T, Evaluation Type: Evaluation A (Pre-1980)
  mutagenic call: no conclusion
Species/Cell Type: Fischer rat embryo (RLV/1706) cells, Assay Type: Cell transformation, viral enhanced, Assay Code: CTR+, Evaluation Type: Evaluation A (Pre-1980)
  mutagenic call: active; positive
Species/Cell Type: Human diploid fibroblasts, Assay Type: Unscheduled DNA synthesis (UDS) in vitro, DNA effects, Assay Code: UDH-, Evaluation Type: Evaluation A (Pre-1980)
  mutagenic call: inactive; negative
Species/Cell Type: Mouse (BALB/c-3T3) cells, Assay Type: Cell transformation, Assay Code: CTB-, Evaluation Type: Evaluation A (Pre-1980)
  mutagenic call: inactive; negative
[16]
  call: active; positive
[1]
  mutagenic call: active; positive
Species/Cell Type: Rat primary hepatocytes, Assay Type: Unscheduled DNA synthesis (UDS) in vitro, DNA effects, Assay Code: UDPT, Evaluation Type: Evaluation A (Pre-1980)
  mutagenic call: no conclusion
[13]
  mutagenic call: inactive; positive without activation, negative with activation
[17]
  mutagenic call: active; positive
[14]
  mutagenic call: active; positive
[15]
  mutagenic call: inactive; negative

Reference: PubChem BioAssay AID1259408 (Genetic Toxicology Data Bank (GENE-TOX), 2018)
